Our source for the EC50 and IC50 values is patent publication US10030016B2 (Sunesis Pharmaceuticals, Inc., priority 2009, dated 2018).

Experiment [1] concerns phospho-akt (Thr308) in PC-3 cells. The experiment in a line: Inhibition of phospho-akt (Thr308) in PC-3 cells, MSD phospho-akt 308 ELISA kit. The format is cell-based. As to conditions: Homo sapiens, 2 hours, no serum, read-out: EC50. The gist of the method: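 Read-out is MSD electrochemiluminescence of Akt phosphorylated at Thr308 in lysates of PC-3 cells treated 2 h with compound in serum-free medium. Wortmannin at 5 μM defined the low control and DMSO the high control.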
On the technique in general: An ELISA detects its analyte on a solid surface through an enzyme-linked reagent.

In experiment [2] the target is PDK1 (Homo sapiens (Human), UniProt O15530). The experiment is described as follows: PDK1 kinase assay (coupled PDK1/AKT/FAM-crosstide assay, IMAP fluorescence polarization). The experiment is classed as biochemical. An outline of the steps: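 Coupled cascade: 0.75 nM PDK1 (51-359) → 10 nM AKT2 (140-467-PIFtide) → 100 nM FAM-crosstide. ATP 40 μM, 25° C, 30 min. IMAP FP (ex 485/em 530), 2 h binding. ΔmP vs conc, 4-param fit.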

Where [3] appears, read: inhibition of P308 Akt in PC-3 cells, MSD.
[4] abbreviates: inhibition of phospo-PDK1 in vitro.
Setting [5] is: inhibition of P308 Akt in PC-3 cells using MSD.
The mark [6] stands for this setting: PC-3, 2 h, inhibition of P308 Akt in PC-3 cells using MSD.

Structures can show the parent of a compound that is named as a salt. Where two headings read alike, the source gives them in different places. A value given as a limit tells only on which side of the number the result lay.

Chain of PDK1 (O15530 51-359): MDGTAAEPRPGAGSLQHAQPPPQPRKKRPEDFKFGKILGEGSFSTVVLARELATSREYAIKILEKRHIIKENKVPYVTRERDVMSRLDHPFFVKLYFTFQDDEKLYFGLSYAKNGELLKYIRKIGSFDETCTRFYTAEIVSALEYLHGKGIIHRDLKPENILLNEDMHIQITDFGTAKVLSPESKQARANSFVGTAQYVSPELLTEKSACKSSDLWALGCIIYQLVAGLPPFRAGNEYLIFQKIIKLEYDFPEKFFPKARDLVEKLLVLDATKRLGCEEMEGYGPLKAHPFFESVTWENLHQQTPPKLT

What is called EC50 is the concentration needed to bring the measured effect to its halfway point. The IC50 is the concentration that inhibits the measured activity by half. In the case of `C[C@@H](NC(=O)c1cccnc1NCc1ccc(-c2ccc3ncnc(N)c3c2)s1)c1cccc(F)c1` [Example 3.20, 2-({[5-(4-aminoquinazolin-6-yl)thiophen-2-yl]methyl}amino)-N-[(1R)-1-(3-fluorophenyl)ethyl] pyridine-3-carboxamide (TFA salt)], the EC50 in experiment [1] (setting [3]) is over 10000 nM. Besides, the IC50 in experiment [2] (setting [4]) is over 5000 nM.
Take `C[C@H](NC(=O)c1cc(C#N)cnc1NCc1ccc(Oc2ccnc(N)c2)cc1)c1ccc(F)cc1` [Example 388]: in experiment [1] (setting [5]), the EC50 is over 10000 nM. This compound also yielded a concentration for half-maximal inhibition (IC50) in experiment [2] (inhibition of PDK1 in vitro) of over 5000 nM.
In the case of `CNc1ncc2cc(C#CCNc3ncc(C(F)(F)F)cc3C(=O)NCc3ccc(F)c(F)c3)ccc2n1` [Example 256, N-(3,4-difluorobenzyl)-2-(2-(2-(methylamino)quinazolin-6-yl)prop-2-ynylamino)-5-(trifluoromethyl)nicotinamide], in experiment [1] (setting [5]), the 50% effective concentration (EC50) was 1000 to 10000 nM. Further, in experiment [2] (inhibition of PDK1 in vitro), the IC50 was under 100 nM.
In the case of `C[C@H](NC(=O)c1cccnc1NCc1ccc(-c2cn(C3CCC3)c3ncnc(N)c23)cc1)c1ccc(F)cc1` [Example 346, (S)-2-(4-(4-amino-7-cyclobutyl-7H-pyrrolo [2,3-d]pyrimidin-5-yl)benzylamino)-N-(1-(4-fluorophenyl)ethyl)nicotinamide], the concentration giving a half-maximal response (EC50) in experiment [1] (setting [6]) was under 1000 nM. Moreover, the 50% inhibitory concentration (IC50) in experiment [2] (inhibition of PDK1 in vitro) fell in the range of 100 to 1000 nM.
Regarding `Nc1n[nH]c2ncc(-c3ccc(CNc4ncc(C(F)(F)F)cc4C(=O)Nc4cccnc4)cc3)cc12` [Example 289, 2-(4-(3-amino-1H-pyrazolo [3,4-b]pyridin-5-yl)benzylamino)-N-(pyridin-3-yl)-5-(trifluoromethyl) nicotinamide], the EC50 in experiment [1] (setting [5]) was under 1000 nM. Further, in experiment [2] (inhibition of PDK1 in vitro), the IC50 is under 100 nM.
Regarding `N#Cc1cnc(NCc2ccc(Oc3cccnc3N)cc2)c(C(=O)NCc2ccc(F)c(F)c2)c1` [Example 313, 2-(4-(2-aminopyridin-3-yloxy)benzylamino)-5-cyano-N-(3,4-difluorobenzyl) nicotinamide], in experiment [1] (setting [5]), the concentration giving a half-maximal response (EC50) was over 10000 nM. In addition, the IC50 in experiment [2] (inhibition of PDK1 in vitro) is over 5000 nM.
Consider `C[C@H](NC(=O)c1cccnc1NCc1cn(-c2ccc3[nH]c(=O)[nH]c3c2)nn1)c1ccc(F)c(F)c1` [Example 9.2, (S)-N-(1-(3,4-difluorophenyl)ethyl)-2-(((1-(2-oxo-2,3-dihydro-1H-benzo[d]imidazol-5-yl)-1H-1,2,3-triazol-4-yl)methyl)amino) nicotinamide], for which the concentration for a half-maximal effect (EC50) in experiment [1] (setting [3]) was over 10000 nM. Besides, in experiment [2] (setting [4]), the IC50 was over 5000 nM.
Take `C[C@H](NC(=O)c1nc(C#N)cnc1N[C@H](C)c1ccc(-c2cn(C)c3ncnc(N)c23)cc1)c1ccc(F)c(F)c1` [Example 399, 3-((R)-1-(4-(4-amino-7-methyl-7H-pyrrolo[2,3-d]pyrimidin-5-yl)phenyl)ethylamino)-6-cyano-N-((S)-1-(3,4-difluorophenyl)ethyl)pyrazine-2-carboxamide]: the concentration giving a half-maximal response (EC50) in experiment [1] (setting [5]) was under 1000 nM. Also, the IC50 in experiment [2] (inhibition of PDK1 in vitro) was under 100 nM.
Consider `COc1cccc(NC(=O)c2cc(C(F)(F)F)cnc2NCc2ccc(-c3cnc4[nH]nc(N)c4c3)cc2)c1` [Example 301, 2-(4-(3-amino-1H-pyrazolo [3,4-b]pyridin-5-yl)benzylamino)-N-(3-methoxyphenyl)-5-(trifluoromethyl)nicotinamide], for which the EC50 in experiment [1] (setting [5]) lay within 1000 to 10000 nM. In experiment [2] (inhibition of PDK1 in vitro), this compound gave a half-inhibitory concentration (IC50) of under 100 nM.
Turning to `C[C@H](NC(=O)c1cc(C#N)cnc1NCc1ccc(-c2cnc3[nH]cnc3c2)cc1)c1ccc(F)cc1` [Example 135, (S)-2-(4-(3H-imidazo [4,5-b]pyridin-6-yl)benzylamino)-5-cyano-N-(1-(4-fluorophenyl)ethyl)nicotinamide], the EC50 in experiment [1] (setting [5]) was under 1000 nM. This compound also returned an IC50 in experiment [2] (inhibition of PDK1 in vitro) of under 100 nM.
As for `C[C@H](NC(=O)c1cc(C#N)cnc1NCc1ccc(-c2cnc(N)c(O[C@H]3CCC[C@@H]3N)n2)cc1)c1ccc(F)cc1` [Example 168, 2-{4-[5-Amino-6-((1S,2S)-2-amino-cyclopentyloxy)-pyrazin-2-yl]-benzylamino}-5-cyano-N-[(S)-1-(4-fluoro-phenyl)-ethyl]-nicotinamide], the EC50 in experiment [1] (setting [5]) was 1000 to 10000 nM. In experiment [2] (inhibition of PDK1 in vitro), this compound registered a 50% inhibitory concentration (IC50) of under 100 nM.
As for `N#Cc1cnc2c(c1)c(NCc1ccc(F)c(F)c1)nn2Cc1ccc(-c2cnc(N)cn2)cc1` [Example 259, 1-(4-(5-aminopyrazin-2-yl)benzyl)-3-(3,4-difluorobenzylamino)-1H-pyrazolo[3,4-b]pyridine-5-carbonitrile], the concentration giving a half-maximal response (EC50) in experiment [1] (setting [5]) is over 10000 nM. In experiment [2] (inhibition of PDK1 in vitro), the concentration for half-maximal inhibition (IC50) fell in the range of 100 to 1000 nM.
On the same counts, the results for `N#Cc1ccc(NCc2ccc(-c3ccc4ncnc(N)c4c3)s2)c(C(=O)NCc2ccc(F)c(F)c2)c1` [Example 247, 2-(((5-(4-aminoquinazolin-6-yl)thiophen-2-yl)methyl)amino)-5-cyano-N-(3,4-difluorobenzyl)benzamide] are over 10000 nM and under 100 nM.
For `C[C@H](NC(=O)c1cccnc1NCc1ccc(-c2ccc3ncc(N(C)C)nc3c2)s1)c1ccc(F)c(F)c1` [Example 4.27, (S)-N-(1-(3,4-difluoro-phenyl)ethyl)-2-(((5-(3-(dimethylamino)quinoxalin-6-yl)thiophen-2-yl)methyl)amino)nicotinamide], the half-maximal effective concentration (EC50) in experiment [1] (setting [3]) is over 10000 nM. The compound further yielded a concentration for half-maximal inhibition (IC50) in experiment [2] (setting [4]) of 1000 to 5000 nM.
In the case of `O=C(NCc1ccc(F)c(F)c1)c1cccnc1NCc1ccc(-c2ccc3ncnc(NCC(F)(F)F)c3c2)s1` [Example 4.22, N-(3,4-difluorobenzyl)-2-(((5-(4-(2,2,2-trifluoroethylamino)quinazolin-6-yl)thiophen-2-yl)methyl)amino)nicotinamide], the concentration for a half-maximal effect (EC50) in experiment [1] (setting [3]) was in the range of 1000 to 10000 nM. Besides, the IC50 in experiment [2] (setting [4]) fell in the range of 100 to 1000 nM.
With `Nc1n[nH]c2ncc(-c3ccc(CNc4ncc(C(F)(F)F)cc4C(=O)NC4CCCCC4)cc3)cc12` [Example 297, 2-(4-(3-amino-1H-pyrazolo [3,4-b]pyridin-5-yl)benzylamino)-N-cyclohexyl-5-(trifluoromethyl)nicotinamide], the EC50 in experiment [1] (setting [5]) is under 1000 nM. Besides, the half-inhibitory concentration (IC50) in experiment [2] (inhibition of PDK1 in vitro) is under 100 nM.
On to `C[C@H](NC(=O)c1nc(C#N)cnc1NCc1ccc(-c2cnc(N)c(CCC(C)(C)N)n2)cc1)c1ccc(F)c(F)c1` [Example 84, 3-{4-[5-Amino-6-(3-amino-3-methyl-butyl)-pyrazin-2-yl]-benzylamino}-6-cyano-pyrazine-2-carboxylic acid [(S)-1-(3,4-difluoro-phenyl)-ethyl]-amide], for which, in experiment [1] (setting [5]), the concentration giving a half-maximal response (EC50) was under 1000 nM. The compound also yielded a half-maximal inhibitory concentration (IC50) in experiment [2] (inhibition of PDK1 in vitro) of under 100 nM.
With `C[C@H](NC(=O)c1cc(C#N)cnc1N[C@H](CC(=O)N(C)C)c1ccc(-c2c[nH]c3ncnc(N)c23)cc1)c1ccc(F)cc1` [Example 48, 2-((R)-1-(4-(4 - amino-7H-pyrrolo[2,3-d]pyrimidin-5-yl)phenyl)-3-(dimethylamino)-3-oxopropylamino)-5-cyano-N-((S)-1-(4-fluorophenyl)ethyl)nicotinamide], the EC50 in experiment [1] (setting [6]) fell in the range of 1000 to 10000 nM. Besides, the IC50 in experiment [2] (inhibition of PDK1 in vitro) lay within 100 to 1000 nM.
As for `COc1cc2ncnc(-c3ccc(CNc4ncccc4C(=O)N[C@@H](C)c4ccc(F)cc4)s3)c2cc1OC` [Example 2.12, (S)-2-(((5-(6,7-dimethoxyquinazolin-4-yl)thiophen-2-yl)methyl)amino)-N-(1-(4-fluorophenyl)ethyl) nicotinamide], the half-maximal effective concentration (EC50) in experiment [1] (setting [3]) was 1000 to 10000 nM. The concentration for half-maximal inhibition (IC50) in experiment [2] (setting [4]) is over 5000 nM.
On to `O=C(NCc1ccc(F)c(F)c1)c1cc(C(F)(F)F)cnc1NCc1ccc(-c2cnc(NCCCO)cn2)cc1` [Example 231, N-(3,4-Difluoro-benzyl)-2-{4-[5-(3-hydroxy-propylamino)-pyrazin-2-yl]-benzylamino}-5-trifluoromethyl-nicotinamide], for which the EC50 in experiment [1] (setting [6]) lay in the range of 1000 to 10000 nM. The same compound had an IC50 in experiment [2] (inhibition of PDK1 in vitro) of 100 to 1000 nM.
For `Nc1ncc(-c2ccc(CNc3ncc(C(F)(F)F)cc3C(=O)Nc3ccc(F)cc3)cc2)nc1-c1cccc(O)c1` [Example 236, 2-{4-[5-Amino-6-(3-hydroxy-phenyl)-pyrazin-2-yl]-benzylamino}-N-(4-fluoro-phenyl)-5-trifluoromethyl-nicotinamide], the concentration for a half-maximal effect (EC50) in experiment [1] (setting [5]) fell in the range of 1000 to 10000 nM. This compound displayed an IC50 in experiment [2] (inhibition of PDK1 in vitro) of under 100 nM.
In the case of `C[C@@H](c1ccc(F)c(F)c1)n1cnc2ccnc(NCc3ccc(-c4ccc5ncnc(N)c5c4)s3)c2c1=O` [Example 7.10, 5-({[5-(4-aminoquinazolin-6-yl)thiophen-2-yl]methyl}amino)-3-[(1S)-1-(3,4-difluorophenyl)ethyl] pyrido[4,3-d]pyrimidin-4(3H)-one], in experiment [1] (setting [3]), the half-maximal effective concentration (EC50) was under 1000 nM. This compound registered an IC50 in experiment [2] (setting [4]) of under 100 nM.
Turning to `O=C(NCc1ccc(F)c(F)c1)c1cc(C(F)(F)F)cnc1NCc1ccc(-c2cnc(NCCO)cn2)cc1` [Example 229, N-(3,4-difluorobenzyl)-2-(4-(5-(2-hydroxyethylamino)pyrazin-2-yl)benzylamino)-5-(trifluoromethyl)nicotinamide], in experiment [1] (setting [5]), the concentration giving a half-maximal response (EC50) lay within 1000 to 10000 nM. The same compound gave an IC50 in experiment [2] (inhibition of PDK1 in vitro) of 100 to 1000 nM.
On to `C[C@H](NC(=O)c1cccnc1NCc1ccc(-c2ccc3ncnc(NC4CC4)c3c2)s1)c1ccc(F)c(F)c1` [Example 386, 2-{[5-(4-Cyclopropylamino-quinazolin-6-yl)-thiophen-2-ylmethyl]-amino}-N-[(S)-1-(3,4-difluoro-phenyl)-ethyl]-nicotinamide], for which the EC50 in experiment [1] (setting [5]) is 1000 to 10000 nM. Moreover, the 50% inhibitory concentration (IC50) in experiment [2] (inhibition of PDK1 in vitro) was under 100 nM.
As for `Nc1ncnc2ccc(-c3ccc(CNc4ncccc4C(=O)NCc4ccc(F)cc4F)s3)cc12` [Example 3.8, 2-({[5-(4-aminoquinazolin-6-yl)thiophen-2-yl]methyl}amino)-N-(2,4-difluorobenzyl)pyridine-3-carboxamide (TFA salt)], the EC50 in experiment [1] (setting [3]) fell in the range of 1000 to 10000 nM. The IC50 in experiment [2] (setting [4]) was under 100 nM.
